Entries after “also recorded” stand apart in the source; their conditions may differ.
System: duck hepatocytes
Assay: Induction of steatosis in cultured duck hepatocytes by fatty acid incubation
Assay type: cell-based

- percentage of steatotic hepatocytes (2 μM linoleic acid, duck hepatocytes (FIG. 16B)): above 85%
SMILES: CCCCC/C=C\C/C=C\CCCCCCCC(=O)O [linoleic acid]
- dose response: linoleic acid concentration versus percentage of hepatocytes having steatosis (0, 0.1, 0.25, 0.5, 1, 2 μM linoleic acid (FIG. 16B)): corresponding increase in the percentage of hepatocytes with steatosis
- induction of steatosis (accumulation of intracellular lipid-containing vesicles) (2 μM linoleic acid vs untreated control, duck hepatocytes (FIG. 16A)): successful induction of steatosis; also recorded: successfully induced to undergo steatosis

From US20220025334A1, “SYNTHETIC FOOD COMPOSITIONS” (Wild Type, Inc., priority 2018, published 2022)
